The subject of the assay is IEC-6 rat intestinal cells viability, luminescence. Briefly: PubChem AID 1972.

For the compound `COc1cc2c(c(OC)c1OC)-c1ccc(O)c(=O)cc1C(NC(C)=O)CC2` (stereo unspecified), the IC50 is 121 nM.
